Here are results for 13 compounds from patent US9732088B2, “C2-carbocyclic iminothiazine dioxides as BACE inhibitors, compositions, and their use” (Merck Sharp & Dohme Corp., priority 2014, dated 2017).

By Ki is commonly meant a measure of affinity in units of concentration, obtained from inhibition or displacement. One may read the IC50 as the concentration needed to halve the response being measured. Read a high IC50 as lower potency.

Test [1] deals with soluble human BACE-1 catalytic domain (Homo sapiens (Human), UniProt P56817). The test can be described thus: BACE-1 Ki Assay (BACE-1 HTRF FRET Assay). The format is biochemical. Conditions: Assay 1; Ki calculated from IC50 by Cheng-Prusoff. On the procedure:
Assay 1: BACE-1 Ki Assay (BACE-1 HTRF FRET Assay)
The compounds of the invention were determined to be potent inhibitors of BACE-1 using the following assay.
The following reagents were used in this assay. Na^+-Acetate pH 5.0; 1% Brij-35; Glycerol; Dimethyl Sulfoxide (DMSO); Recombinant human soluble BACE-1 catalytic domain (>95% pure); APP Swedish mutant peptide substrate (QSY7-APP^swe-Eu): QSY7-[…]-Europium-amide.
A homogeneous time-resolved FRET assay can be used to determine IC50 values for inhibitors of the soluble human BACE-1 catalytic domain. This assay monitors the increase of 620 nm fluorescence that resulted from BACE-1 cleavage of an APPswedish APP^swe mutant peptide FRET substrate (QSY7-[…]-Europium-amide). This substrate contains an N-terminal QSY7 moiety that serves as a quencher of the C-terminal Europium fluorophore (620 nm Em). In the absence of enzyme activity, 620 nm fluorescence is low in the assay and increased linearly over 3 hours in the presence of uninhibited BACE-1 enzyme. Inhibition of BACE-1 cleavage of the QSY7-APP^swe-Eu substrate by inhibitors is manifested as a suppression of 620 nm fluorescence.
Varying concentrations of inhibitors at 3× the final desired concentration in a volume of […] are preincubated with purified human BACE-1 catalytic domain (3 nM in 10 μl) for 30 minutes at 30° C. in reaction buffer containing 20 mM Na-Acetate pH 5.0, 10% glycerol, 0.1% Brij-35 and 7.5% DSMO. Reactions are initiated by addition of 10 μl of 600 nM QSY7-APP^swe-Eu substrate (200 nM final) to give a final reaction volume of 30 μl in a 384 well Nunc HTRF plate. The reactions are incubated at 30° C. for 1.5 hours. The 620 nm fluorescence is then read on a Rubystar HTRF plate reader (BMG Labtechnologies) using a […] delay followed by a 400 millisecond acquisition time window. Inhibitor IC50 values are derived from non-linear regression analysis of concentration response curves. Ki values are then calculated from IC50 values using the Cheng-Prusoff equation using a previously determined […] of 8 μM for the QSY7-APP^swe-Eu substrate at BACE-1. The example compounds of the invention were measured in this assay.

Test [2] deals with BACE-1 (Homo sapiens (Human), UniProt P56817). Put plainly: BACE-1 Cellular Assay (Aβ in HEK293-APPswe/lon cells). The note with it: 4 hours. It counts as cell-based. The procedure: Assay 3: BACE-1 Cellular Assay
Certain compounds of the invention, identified in the tables herein, were determined to be potent inhibitors of BACE-1 in the following cellular assay. HEK293 cells are obtained from the American Type Culture Collection (ATCC) and stably transfected with the human amyloid precursor protein cDNA containing the FAD Swedish (enhances β-secretase processing) and London (enhances Aβ42 cleavage) mutations. A HEK293 stable clone with Aβ expression (HEK293-APP^swe/lon) is identified and maintained at 37° C., 5% CO2 in the ATCC-recommended growth media supplemented with hygromycin. […] Aβ40 or Aβ42 are measured in 15 μl of media using a mesoscale based ELISA assay. Full length Aβ40 and Aβ42 peptides are captured with the N-terminal specific biotinylated-WO2 monoclonal antibody and detected using either the ruthenylated Aβ40 C-terminal specific monoclonal antibody, G2-10 or the ruthenylated Aβ42 C-terminal specific monoclonal antibody G2-11 respectively. Raw electrochemiluminescnce values are measured using a Mesoscale Sector Imager plate reader and are plotted as a function of compound concentration. IC50 values are interpolated from the data using nonlinear regression analysis (Sigmoidal dose response fit with variable slope) of the data using GraphPad Prism software.

Test [3] concerns the target purified human Cathepsin-D (Homo sapiens (Human), UniProt P07339). The test can be described thus: Cathepsin-D Assay (time-resolved FRET).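 Note: Europium-labelled peptide substrate with QSY7 quencher, cleavage read as 620 nm fluorescence after 30 min preincubation then 30 min reaction at 30 °C, pH 5.0, inhibition lowers signal.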 The note with it: Assay 4; Ki calculated from IC50 by Cheng-Prusoff. The format is biochemical.
Description: Assay 4: Cathepsin-D Assay
This substrate contains an C-terminal QSY7 moiety that serves as a quencher of the N-terminal Europium fluorophore (620 nm Em). In the absence of enzyme activity, 620 nm fluorescence is low in the assay and increased linearly over 1 hour in the presence of uninhibited Cathepsin-D enzyme. Inhibition of Cathespin D cleavage of the Eu-Aspartyl Protease-QSY7 substrate by inhibitors is manifested as a suppression of 620 nm fluorescence.
Varying concentrations of inhibitors in a volume of 100 nl are preincubated with purified human Cathepsin-D (0.1 nM in 10 μl) for 30 minutes at 30° C. in reaction buffer containing 100 mM Na-Acetate pH 5.0, and 0.02% Brij-35. Reactions are initiated by addition of 10 μl of 100 nM Eu-Aspartyl Protease-QSY7 substrate (50 nM final) to give a final reaction volume of 20 μl in a 384 well Nunc HTRF plate. The reactions are incubated at 30° C. for 30 minutes. The 620 nm fluorescence is then read on a Envision Multilabel plate reader (Perkin-Elmer) using a 200 microsecond delay followed by a 400 microsecond acquisition time window. Inhibitor IC50 values are derived from non-linear regression analysis of concentration response curves.
In test [4] the target is purified human autoBACE-2 (Homo sapiens (Human), UniProt Q9Y5Z0). The test can be described thus: BACE-2 Assay (BACE-HTRF assay). It counts as biochemical. The note with it: Assay 2; Ki calculated from IC50 by Cheng-Prusoff; read-out: BACE2 Ki. On the procedure:
The compounds of the invention were determined to be potent inhibitors of BACE-2 using the following assay. Inhibitor IC50s at purified human autoBACE-2 are determined in a time-resolved endpoint proteolysis assay that measures hydrolysis of the QSY7-[…]-Eu-amide FRET peptide substrate (BACE-HTRF assay). BACE-mediated hydrolysis of this peptide results in an increase in relative fluorescence (RFU) at 620 nm after excitation with 320 nm light Inhibitor compounds, prepared at 3× the desired final concentration in 1×BACE assay buffer (20 mM sodium acetate pH 5.0, 10% glycerol, 0.1% Brij-35) supplemented with 7.5% DMSO are pre-incubated with an equal volume of autoBACE-2 enzyme diluted in 1×BACE assay buffer (final enzyme concentration 1 nM) in black 384-well NUNC plates for 30 minutes at 30° C. […] DMSO is present at […] final concentration in the assay. Following laser excitation of sample wells at 320 nm, the fluorescence signal at 620 nm is collected for 400 ms following a 50 μs delay on a RUBYstar HTRF plate reader (BMG Labtechnologies). Raw RFU data is normalized to maximum (1.0 nM BACE/DMSO) and minimum (no enzyme/DMSO) RFU values. IC50 values are determined by nonlinear regression analysis (sigmoidal dose response, variable slope) of percent inhibition data with minimum and maximum values set to 0 and 100 percent respectively. Similar IC50s are obtained when using raw RFU data. The Ki values are calculated from the IC50 using the Cheng-Prusoff equation.

A value given as a limit tells only on which side of the number the result lay.

Sequence of soluble human BACE-1 catalytic domain (P56817 75-416): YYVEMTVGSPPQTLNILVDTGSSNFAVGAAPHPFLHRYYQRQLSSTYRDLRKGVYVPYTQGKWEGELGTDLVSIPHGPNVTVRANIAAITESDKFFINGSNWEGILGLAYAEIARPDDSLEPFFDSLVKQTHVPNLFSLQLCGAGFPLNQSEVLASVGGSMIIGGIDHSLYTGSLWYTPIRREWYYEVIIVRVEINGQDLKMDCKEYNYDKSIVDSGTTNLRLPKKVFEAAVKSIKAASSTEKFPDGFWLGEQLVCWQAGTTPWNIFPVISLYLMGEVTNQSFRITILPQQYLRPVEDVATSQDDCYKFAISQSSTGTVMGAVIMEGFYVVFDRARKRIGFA
Sequence of BACE-1 (P56817 46-501): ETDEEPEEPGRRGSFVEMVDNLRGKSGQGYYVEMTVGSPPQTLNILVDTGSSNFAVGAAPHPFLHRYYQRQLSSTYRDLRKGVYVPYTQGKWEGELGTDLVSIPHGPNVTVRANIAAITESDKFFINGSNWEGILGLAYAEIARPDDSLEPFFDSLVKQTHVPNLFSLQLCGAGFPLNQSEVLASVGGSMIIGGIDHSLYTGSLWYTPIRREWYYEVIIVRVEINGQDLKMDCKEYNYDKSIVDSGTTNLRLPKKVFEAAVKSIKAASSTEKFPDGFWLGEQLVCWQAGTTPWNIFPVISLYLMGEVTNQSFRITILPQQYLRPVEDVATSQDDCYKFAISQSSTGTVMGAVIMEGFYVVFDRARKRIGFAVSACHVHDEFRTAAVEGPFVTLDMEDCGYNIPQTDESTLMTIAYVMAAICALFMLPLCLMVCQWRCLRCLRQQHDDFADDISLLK
Sequence of purified human autoBACE-2 (Q9Y5Z0 63-466): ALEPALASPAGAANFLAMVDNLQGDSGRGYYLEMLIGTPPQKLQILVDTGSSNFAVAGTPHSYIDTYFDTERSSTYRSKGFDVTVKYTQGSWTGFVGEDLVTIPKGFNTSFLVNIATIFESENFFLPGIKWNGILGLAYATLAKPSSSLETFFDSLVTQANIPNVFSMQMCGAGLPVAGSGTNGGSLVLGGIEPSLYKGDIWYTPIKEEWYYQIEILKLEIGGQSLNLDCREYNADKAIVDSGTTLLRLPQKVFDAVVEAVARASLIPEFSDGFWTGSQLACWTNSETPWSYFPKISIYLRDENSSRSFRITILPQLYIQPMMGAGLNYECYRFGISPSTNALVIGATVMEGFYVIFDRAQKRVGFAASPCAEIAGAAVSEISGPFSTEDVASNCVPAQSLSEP
Sequence of purified human Cathepsin-D (P07339 65-412): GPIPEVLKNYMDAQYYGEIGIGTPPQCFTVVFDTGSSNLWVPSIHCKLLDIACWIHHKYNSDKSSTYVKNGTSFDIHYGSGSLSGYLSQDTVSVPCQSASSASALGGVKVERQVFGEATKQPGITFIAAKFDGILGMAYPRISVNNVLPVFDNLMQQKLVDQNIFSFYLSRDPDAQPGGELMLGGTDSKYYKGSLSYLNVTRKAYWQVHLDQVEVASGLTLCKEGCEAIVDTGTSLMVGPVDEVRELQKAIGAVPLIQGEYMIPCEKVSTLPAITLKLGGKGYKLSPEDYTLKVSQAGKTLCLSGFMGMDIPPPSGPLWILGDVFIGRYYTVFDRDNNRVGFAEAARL

As for `COc1cnc2c(Nc3ccc(F)c([C@]4(C)CS(=O)(=O)[C@@](CF)(C5CC5)C(N)=N4)c3)nccc2n1` [Example 8, N-{3-[(3R,6S)-6-cyclopropyl-6-(fluoromethyl)-5-imino-3-methyl-1,1-dioxidothiomoipholin-3-yl]-4-fluorophenyl}-2-methoxypyrido[3,4-b]pyrazin-5-amine], the Ki was 4.5 nM in test [1], 4010 nM in test [3] and 4.2 nM in test [4]. Also, in test [2], 91 nM corresponded to half-maximal inhibition (IC50).
For `C[C@@]1(c2cc(Nc3nccc4cc(Br)cnc34)ncc2F)CS(=O)(=O)[C@@](C)(C2CC2)C(N)=N1` [Example 3, 3-bromo-N-{4-[(3R,6S)-6-cyclopropyl-5-imino-3,6-dimethyl-1,1-dioxidothiomorpholin-3-yl]-5-fIuoropyridin-2-yl}-1,7-naphthyridin-8-amine], the results for the Ki in test [1], in test [3] and in test [4] were 1.5 nM, 5530 nM and 0.35 nM, respectively. For the same compound, inhibition in test [2] was half-maximal at 25 nM (IC50).
Regarding `C[C@@]1(c2nc(Nc3nccc4cc(C#N)cnc34)ccc2F)CS(=O)(=O)[C@@](CF)(C2CC2)C(N)=N1` [Example 2, 8-({6-[(3R,6S)-6-cyclopropyl-6-(fluoromethyl)-5-imino-3-methyl-1,1-dioxidothiomoipholin-3-yl]-5-fluoropyridin-2-yl}amino)-1,7-naphthyridine-3-carbonitrile], the Ki is 15 nM in test [1], 159 nM in test [3] and 6.9 nM in test [4]. The compound further registered an IC50 in test [2] of 52 nM.
With `COc1cnc2c(Nc3cc([C@]4(C)CS(=O)(=O)[C@@](C)(C5CC5)C(N)=N4)c(F)cn3)ncnc2c1` [Example 19, N-{4-[(3R,6S)-6-cyclopropyl-5-imino-3,6-dimethyl-1,1-dioxidothiomorpholin-3-yl]-5-fluoropyridin-2-yl}-7-methoxypyrido[3,2-d]pyrimidin-4-amine], the Ki is 67 nM in test [1], 9300 nM in test [3] and 21 nM in test [4]. Also, the IC50 in test [2] stood at 192 nM.
For the compound `CC#CCOc1cnc2c(Nc3cnc(F)c([C@]4(C)CS(=O)(=O)[C@@](CF)(C5CC5)C(N)=N4)c3)nccc2n1` [Example 13, 2-(but-2-yn-1-yloxy)-N-{5-[(3R,6S)-6-cyclopropyl-6-(fluoromethyl)-5-imino-3-methyl-1,1-dioxidothiomorpholin-3-yl]-6-fluoropyridin-3-yl}pyrido[3,4-b]pyrazin-5-amine], the Ki in test [1] is 0.65 nM; in test [3] it was 3380 nM; in test [4], 1.1 nM. In addition, inhibition in test [2] was half-maximal at 6.6 nM (IC50).
On to `C[C@@]1(c2cc(Nc3nccc4cc(C#N)cnc34)ncc2F)CS(=O)(=O)[C@@](C)(C2CC2)C(N)=N1` [Example 4, 8-({4-[(3R,6S)-6-cyclopropyl-5-imino-3,6-dimethyl-1,1-dioxidothiomorpholin-3-yl]-5-fluoropyridin-2-yl}amino)-1,7-naphthyridine-3-carbonitrile], for which the results for the Ki in test [1], in test [3] and in test [4] were 3.8 nM, 6650 nM and 1.5 nM, respectively. In test [2], this compound gave an IC50 of 19 nM.
`COc1cnc2c(Nc3cnc(F)c([C@]4(C)CS(=O)(=O)[C@@](CF)(C5CC5)C(N)=N4)c3)nccc2c1` [Example 12, N-{5-[(3R,6S)-6-cyclopropyl-6-(fluoromethyl)-5-imino-3-methyl-1,1-dioxidothiomorpholin-3-yl]-6-fluoropyridin-3-yl}-3-methoxy-1,7-naphthyridin-8-amine]: the Ki in test [1] was 6.1 nM; in test [3], 629 nM; in test [4] it was 3.3 nM. In test [2], the IC50 came to 99 nM.
In the case of `C[C@@]1(c2cc(Nc3nccc4cc(Br)cnc34)ccc2F)CS(=O)(=O)[C@@](C)(C2CC2)C(N)=N1` [Example 17, 3-bromo-N-{3-[(3R,6S)-6-cyclopropyl-5-imino-3,6-dimethyl-1,1-dioxidothiomorpholin-3-yl]-4-fluorophenyl}-1,7-naphthyridin-8-amine], the results for the Ki in test [1], in test [3] and in test [4] were 1.4 nM, 146 nM and 0.41 nM, respectively. The compound also returned an IC50 in test [2] of 16 nM.
Regarding `C[C@@]1(c2cc(Nc3nccc4cc(O)cnc34)ncc2F)CS(=O)(=O)[C@@](C)(C2CC2)C(N)=N1` [Example 25, (3R,6S)-5-amino-6-cyclopropyl-3-(5-fluoro-2-((3-hydroxy-1,7-naphthyridin-8-yl)amino)pyridin-4-yl)-3,6-dimethyl-3,6-dihydro-2H-1,4-thiazine 1,1-dioxide], the Ki is 0.89 nM in test [1], above 9400 nM in test [3] and 0.59 nM in test [4]. Further, the IC50 in test [2] stood at 4.9 nM.
Taken in the same sequence, the figures for `C[C@@]1(c2cc(Nc3nccc4cc(Cl)cnc34)ncc2F)CS(=O)(=O)[C@@](C)(C2CC2)C(N)=N1` [Example 27, (3R,6S)-5-amino-3-(2-((3-chloro-1,7-naphthyridin-8-yl)amino)-5-fluoropyridin-4-yl)-6-cyclopropyl-3,6-dimethyl-3,6-dihydro-2H-1,4-thiazine 1,1-dioxide] were 10 nM, above 9400 nM, 2.9 nM and 180 nM.
Take `COc1cnc2c(Nc3cc([C@]4(C)CS(=O)(=O)[C@@](C)(C5CC5)C(N)=N4)c(F)cn3)nccc2n1` [Example 9, N-{4-[(3R,6S)-6-cyclopropyl-5-imino-3,6-dimethyl-1,1-dioxidothiomorpholin-3-yl]-5-fluoropyridin-2-yl}-2-methoxypyrido[3,4-b]pyrazin-5-amine]: the figures for the Ki in test [1], in test [3] and in test [4] were 13.6 nM, above 9400 nM and 1.3 nM, respectively. For the same compound, in test [2], the IC50 is 111 nM.
As for `C[C@@]1(c2cc(Nc3ccnc4cc(Cl)cnc34)ncc2F)CS(=O)(=O)[C@@](C)(C2CC2)C(N)=N1` [Example 33, (3R,6S)-5-amino-3-(2-((7-chloro-1,5-naphthyridin-4-yl)amino)-5-fluoropyridin-4-yl)-6-cyclopropyl-3,6-dimethyl-3,6-dihydro-2H-1,4-thiazine 1,1-dioxide], the Ki is 6.2 nM in test [1], 820 nM in test [3] and 0.82 nM in test [4]. In addition, half-maximal inhibition in test [2] (IC50) required 27 nM.
Turning to `COc1cnc2c(Nc3ccc(F)c([C@]4(C)CS(=O)(=O)[C@@](C)(C5CC5)C(N)=N4)c3)ncnc2c1` [Example 20, (2S,5R)-2-cyclopropyl-5-(2-fluoro-5-((7-methoxypyrido[3,2-d]pyrimidin-4-yl)amino)phenyl)-3-imino-2,5-dimethylthiomorpholine 1,1-dioxide], the figures for the Ki in test [1], in test [3] and in test [4] were 3.7 nM, 2160 nM and 2.4 nM, respectively. The compound also gave an IC50 in test [2] of 5.3 nM.
